This note sets out measurements from patent US8557864B2, “Agent having neurotrophic factor-like activity” (Nagoya Industrial Science Research Institute, priority 2007, dated 2013).

Common to all, as to type: in vivo
Test [1] has as its system mice under chronic mild stress. The test is described as follows: Tail suspension test comparing compound 8 and fluvoxamine after chronic mild stress. The conditions noted are these: Exp. 2 (1 week after stress); compound 8 500 μg/kg, fluvoxamine 1000 μg/kg intraperitoneally once per day. Here is the method:
7-week-old male ddY strain mice fed in one cage for 4 mice were first subjected to forced swimming for 15 minutes in the same manner as stress in Example 2 (behavior test of mice under stress) (1) described in the paragraph [0063] in the specification. Then, stress for 1 week using 3 kinds of cages was regarded as 1 cycle, and the stress was applied for 3 cycles (3 weeks) and chronic mild stress (CMS) was applied. The compound 8 and fluvoxamine were administered to mice immediately after stress in Exp. 1, 1 week after stress in Exp. 2, and 2 weeks after stress in Exp. 3, respectively, and tail suspension tests were carried out on the respective test groups. In each test group, the compound 8 was adjusted in concentration so as to have each of the doses of […] and fluvoxamine was adjusted in concentration so as to have a dose of 1000 μg/kg, by dissolving in 0.1% DMSO, and each dose of the compound 8 and fluvoxamine were intraperitoneally injected to mice once per day from the time immediately after stress. Further, to 7-week-old male ddY strain mice fed in one cage for 4 mice without stress, the compound 8 and fluvoxamine were administered to carry out the tail suspension tests in the same manner as the stressed mice. FIG. 31 show the result. A significance test was performed in a Student's t-test (*). […] “DAEE” denotes the compound 8 and “Flu” denotes fluvoxamine.

The next test has as its system mice. The test is described as follows: Voluntary alternation behavior test (Y-maze test) of mice administered with trimethyltin. On the procedure: The voluntary alternation behavior test (Y-maze test) is one kind of a behavior test using a Y-shaped maze constituted with three arms. First, a mouse is placed on the tip of one arm out of the three arms, letting the mouse freely explore in the maze over 8 minutes, and arms where the mouse transferred are recorded in order. Then, the number of times of transferring to each arm (total arm selection number (total arm entries)) and the number of sequentially selecting three different arms (number of alternation behavior (number of spontaneous behavior)) are counted.
Trimethyltin (hereinafter referred to as “TMT”) is an organic metal compound having neurotoxicity, and acute nerve cell death is cased particularly in granular nerve cells of the hippocampus dentate gyrus, which thus affects memory and learning abilities of a mouse.
The voluntary alternation tests (Y-maze tests) were performed on 1) test groups to which the compound 8 was singly administered and 2) test groups to which TMT and the compound 8 were administered. In the test groups to which the compound 8 was singly administered, the compound 8 was dissolved in 0.1% DMSO to adjust a concentration so as to have each of the doses of 100 and 500 μg/kg and intraperitoneally injected to 6 mice in every administration example each in a dose of 0.25 mL. In 0 μg/kg weight administration examples of controls, 0.25 mL of a phosphoric acid buffer containing 0.1% DMSO was intraperitoneally injected in each time. The voluntary alternation tests (Y-maze tests) were performed on each of the administration groups after the elapse of 2 hours from intraperitoneal administration. In the test group in which TMT and the compound 8 were administered, TMT (2 mg/kg weight) was intraperitoneally administered to a mouse, and the compound 8 was intraperitoneally administered in the same manner as the test groups in which the compound 8 was singly administered after 2 days have passed, and the voluntary alternation test (Y-maze test) was performed after the elapse of 2 hours. FIG. 32 show the results. Significance tests were performed in a Turkey's test (*, ##) and a Student's t-test (++). “DAEE” denotes the compound 8.

Test [2] concerns mice under chronic mild stress. In words: Burying the glass-marbles test after completion of stress. The conditions noted are these: 20 μg/kg and 100 μg/kg; 1 week- and 2 week-administration groups after completion of stress. On the procedure:
Tips were bedded so as to have a height of 5 cm in a box with […] and 25 glass marbles (1.6 cm in diameter) were placed thereon at 5 cm-interval and behaviors of mice were observed. The number of buried glass marbles was found by counting each glass marble that was buried in ⅔ or more from visual observation from just above after 15 minutes as one count. The test was performed for 3 hours. Since a mouse under stress having an anxiety symptom (condition) takes such a behavior as burying glass marbles, a level of the anxiety symptom can be evaluated from the number of buried glass marbles.
Example 2 is a behavior test in which the compound 8 was administered to a mouse as well as stress was applied and a suppression effect of the compound 8 on depressive and anxiety symptoms of the mouse was examined. On the other hand, the present example is a behavior test in which only stress was applied for 3 weeks without administering the compound 8 and stress was completed and a therapeutic effect of the compound 8 on depressive and anxiety symptoms of a mouse after removing stress was examined. Stress was applied to a mouse in the same manner as in Example 2. […]

As for `CCCCCCC/C=C/C(=O)OCC` [Compound 8, trans-2-decenoic acid ethyl ester], the “effect on depressive symptom (immobility time)” value in test [1] is listed as “had an effect”. The “total arm entries (motor function)” value in the test with mice (100 and 500 μg/kg intraperitoneally, 2 hours before test, with or without TMT) is recorded as “no difference”. Further, the “voluntary alternation behavior, compound singly administered” value in the test on mice (100 and 500 μg/kg intraperitoneally, test after 2 hours) was “significantly increased”. For the same compound, the “voluntary alternation behavior in TMT-treated mice” value in the test with mice (TMT 2 mg/kg intraperitoneally, compound 8 after 2 days, test after 2 hours) was “suppressed decrease”. For the same compound, the “number of buried glass marbles, stressed vs non-stressed example” value in test [2] is “no significant difference”.
